Reference: ChEMBL document CHEMBL3882732, “4,5-diaryl-3(2H)-furanone derivatives as cyclooxygenase-2 inhibitors” (2002)

How the values were obtained:
[1] = molecular target: T1, Prostaglandin G/H synthase 1 (Mus musculus, UniProt P22437); assay: Inhibition of COX1 in C57BL/6 mouse peritoneal macrophages assessed as reduction in PGE2 formation pre-incubated for 2 hrs followed by arachidonic acid addition and measured after 10 mins by radio-immuno assay or enzyme-immunoassay
T1 sequence (P22437 whole entry): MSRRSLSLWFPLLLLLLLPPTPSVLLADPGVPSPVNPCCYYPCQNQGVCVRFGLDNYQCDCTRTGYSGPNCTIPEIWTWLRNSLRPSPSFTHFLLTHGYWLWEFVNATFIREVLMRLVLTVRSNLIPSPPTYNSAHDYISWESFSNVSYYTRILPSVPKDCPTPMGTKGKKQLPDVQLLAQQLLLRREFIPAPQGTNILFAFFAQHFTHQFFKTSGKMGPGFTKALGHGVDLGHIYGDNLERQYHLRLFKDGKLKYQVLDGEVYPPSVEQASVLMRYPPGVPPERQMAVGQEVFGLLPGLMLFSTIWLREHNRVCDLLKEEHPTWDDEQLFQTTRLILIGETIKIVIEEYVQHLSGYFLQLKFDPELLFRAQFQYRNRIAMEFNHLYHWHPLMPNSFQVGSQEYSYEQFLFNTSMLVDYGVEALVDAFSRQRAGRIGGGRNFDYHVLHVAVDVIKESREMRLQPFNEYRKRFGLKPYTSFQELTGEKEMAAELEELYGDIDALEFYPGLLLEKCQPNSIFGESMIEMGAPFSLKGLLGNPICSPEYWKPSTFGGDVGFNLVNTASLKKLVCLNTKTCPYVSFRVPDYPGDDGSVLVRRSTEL

Rattus norvegicus [2] = assay: Anti-inflammatory activity in Sprague-Dawley rat assessed as inhibition of carrageenan-induced foot edema at 3 mg/kg dosed through oral gavage 1 hr before carrageenan challenge and measured 3 hrs after carrageenan challenge; assay type: functional
Rattus norvegicus [3] = assay: Anti-inflammatory activity in Sprague-Dawley rat model of […] Freund's adjuvant-induced arthritis assessed as inhibition of adjuvant-induced arthritis dosed through oral gavage daily once beginning on day 14 after adjuvant injection and continued till day 22 after adjuvant injection by displacement plethysmometry; assay type: functional
[4] = molecular target: T2, Prostaglandin G/H synthase 2 (Mus musculus, UniProt Q05769); assay: Inhibition of COX2 in C57BL/6 mouse peritoneal macrophages assessed as reduction in PGE2 formation pre-incubated for 2 hrs before LPS stimulation for 16 hrs followed by arachidonic acid addition and measured after 10 mins in presence of 500 uM aspirin by radio-immuno assay or enzyme-immunoassay
T2 sequence (Q05769 whole entry): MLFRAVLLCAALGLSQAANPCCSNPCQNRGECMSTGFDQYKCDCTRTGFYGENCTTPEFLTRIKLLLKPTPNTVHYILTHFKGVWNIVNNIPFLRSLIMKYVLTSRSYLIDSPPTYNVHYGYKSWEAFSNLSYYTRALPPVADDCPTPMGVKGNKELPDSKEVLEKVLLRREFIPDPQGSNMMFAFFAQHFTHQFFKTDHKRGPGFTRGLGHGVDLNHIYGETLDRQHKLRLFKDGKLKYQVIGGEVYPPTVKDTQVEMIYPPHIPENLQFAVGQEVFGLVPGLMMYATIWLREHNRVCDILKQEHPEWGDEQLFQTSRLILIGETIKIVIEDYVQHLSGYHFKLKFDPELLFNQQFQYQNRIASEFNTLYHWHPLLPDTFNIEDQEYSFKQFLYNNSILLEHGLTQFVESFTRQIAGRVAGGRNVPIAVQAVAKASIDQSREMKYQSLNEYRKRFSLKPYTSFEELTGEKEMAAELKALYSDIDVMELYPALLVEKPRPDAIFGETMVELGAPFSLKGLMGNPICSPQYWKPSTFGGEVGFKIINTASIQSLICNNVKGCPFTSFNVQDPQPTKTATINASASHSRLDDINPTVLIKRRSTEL

[5] = Drug level in Sprague-Dawley rat blood treated with 4-(3-Chlorophenyl)-2,2-dimethyl-5-{4-(methylsulfinyl)phenyl}-3(2H)-furanone at 10 mg/kg dosed through oral gavage assessed as sulfoxide to sulfonyl bio-transformation by measuring compound level measured after 24 to 48 hrs by HPLC method; assay type: ADME, organism-based; settings: in vivo
Mus musculus = assay: Analgesic activity in ICR mouse assessed as reduction in number of abdominal constrictions dosed through oral gavage one hr before acetic acid challenge measured after 6 mins post acetic acid challenge by acetic acid-induced writhing test; assay type: functional; settings: Abdomen, 0.1 h
[6] = Drug metabolism in Sprague-Dawley rat blood assessed as sulfoxide to sulfonyl bio-transformation by measuring compound-62 level at 10 mg/kg dosed through oral gavage measured after 24 to 48 hrs by HPLC method; assay type: ADME, organism-based; settings: in vivo

For `C[S+]([O-])c1ccc(C2=C(c3cccc(F)c3)C(=O)C(C)(C)O2)cc1` (stereo not drawn), the IC50 [1] was 29 µM.
`CC(C)c1ccc(C2=C(c3ccc(S(C)(=O)=O)cc3)OC3(CCCC3)C2=O)cc1` gave an IC50 [1] of 24.4 µM.
Work on `CC1(C)OC(c2ccc(S(N)(=O)=O)c(F)c2)=C(c2ccc(F)cc2F)C1=O` yielded an inhibition in vivo at 3 mg/kg (Rattus norvegicus [2]) of 32%.
For `CC1(C)OC(c2ccc(S(N)(=O)=O)cc2F)=C(c2ccc(F)cc2)C1=O`, the ED50 (Rattus norvegicus [3]) was 0.09 mg/kg.
`CC(=O)c1cccc(C2=C(c3ccc(S(N)(=O)=O)cc3)OC(C)(C)C2=O)c1` gave an IC50 [4] of 0.0337 µM and an IC50 [1] of 8.98 µM.
For `CC1(C)OC(c2ccc(S(C)(=O)=O)cc2)=C(c2cccc(Cl)c2)C1=O`, the Drug metabolism [5] was “Metabolite_Detected”.
`CC1(C)OC(c2ccc(S(N)(=O)=O)cc2)=C(c2cccc(Cl)c2)C1=O` gave an ED50 (Rattus norvegicus [3]) of 0.03 mg/kg.
Molecule `CC1(C)OC(c2ccc(S(C)(=O)=O)cc2)=C(c2cc(F)cc(F)c2)C1=O` has an ED50 (Rattus norvegicus [3]) of 0.03 mg/kg.
With `CC1(C)OC(c2ccc(S(N)(=O)=O)cc2)=C(c2cccc(F)c2)C1=O` [POLMACOXIB] the ED50 (Rattus norvegicus [3]) was 0.02 mg/kg and the ED50 (Mus musculus) was 12.3 mg/kg.
In the case of `C[S+]([O-])c1ccc(C2=C(c3cccc(Cl)c3)C(=O)C(C)(C)O2)cc1` (stereo not drawn), the Drug metabolism [6] is reported as “Metabolite_Detected”.
Molecule `COc1ccc2c(c1)c(CC(=O)O)c(C)n2C(=O)c1ccc(Cl)cc1` [INDOMETHACIN] has an ED50 (Mus musculus) of 7.4 mg/kg.
`C[S+]([O-])c1ccc(C2=C(c3ccc(F)cc3)C(=O)C(C)(C)O2)cc1` (stereo not drawn) gave an IC50 [4] of 8.71 µM and an IC50 [1] of 87.1 µM.
`CC1(C)OC(c2ccc(S(C)(=O)=O)cc2)=C(c2cccc(C(F)(F)F)c2)C1=O` showed an ED50 (Rattus norvegicus [3]) of 0.06 mg/kg.
In the case of `CC1(C)OC(c2ccc(S(C)(=O)=O)cc2)=C(c2cccc(F)c2)C1=O`, the ED50 (Rattus norvegicus [3]) is reported as 0.07 mg/kg and the ED50 (Mus musculus) is reported as 8.3 mg/kg.
